From ChEMBL document CHEMBL1145395, “De novo design of selective antibiotic peptides by incorporation of unnatural amino acids” (J Med Chem, 2007)
In brackets after ≈: the same amount, converted by molar mass. Activity calls are given as the source filed them. The rule behind the calls is not given here. Non-standard residues stand in square brackets, D forms with d. Residues, ends and D or L forms follow the SMILES beside them. ξ: configuration not given here. Pro(3ξ,4ξ-(CH2)4) = O=C(O)[C@H]1NCC2CCCCC21; Pro(3,4-benzo) = O=C(O)[C@H]1NCc2ccccc21; Tic = O=C(O)[C@@H]1Cc2ccccc2CN1; Orn = NCCC[C@H](N)C(=O)O; βAla = NCCC(=O)O

Legend:
Salmonella typhimurium = assay: Antibacterial activity against Salmonella Typhimurium ATCC 13311; format: functional; settings: for Activity: Salmonella enterica subsp. enterica serovar Typhimurium; for MIC: Salmonella enterica
Staphylococcus aureus = assay: Antibacterial activity against methicillin/gentamicin/tetracycline resistant Staphylococcus aureus ATCC 33592; format: functional

| SMILES | Activity (Salmonella typhimurium) | Activity (Staphylococcus aureus) | MIC (Staphylococcus aureus) [µM] | MIC (Salmonella typhimurium) [µM] |
| --- | --- | --- | --- | --- |
| CSCC[C@H](NC(=O)[C@H](CC(C)C)NC(=O)[C@H](CCC(=O)O)NC(=O)[C@@H]1CCCN1C(=O)[C@H](Cc1ccccc1)NC(=O)[C@H](CCCCN)NC(=O)CNC(=O)[C@H](CC(C)C)NC(=O)CNC(=O)[C@H](Cc1ccccc1)NC(=O)[C@H](CCC(=O)O)NC(=O)[C@H](CCCCN)NC(=O)CNC(=O)[C@H](CC(C)C)NC(=O)CNC(=O)[C@@H]1CCCN1C(=O)[C@H](Cc1ccccc1)NC(=O)[C@H](CCSC)NC(=O)[C@H](CCCCN)NC(=O)CNC(C)=O)C(=O)NCC(=O)N[C@@H](CCC(=O)O)C(=O)N[C@@H](CCCNC(=N)N)C(N)=O (Ac-GKMFPGLGKEFGLGKFPELMGER-NH2) | inactive | inactive | – | – |
| CSCC[C@H](NC(=O)[C@H](CC(C)C)NC(=O)[C@H](CCC(=O)O)NC(=O)[C@@H]1CCCN1C(=O)[C@@H]1Cc2ccccc2CN1C(=O)[C@H](CCCCN)NC(=O)CNC(=O)[C@H](CC(C)C)NC(=O)CNC(=O)[C@@H]1C2CCCCC2CN1C(=O)[C@@H]1Cc2ccccc2CN1C(=O)[C@H](CCC(=O)O)NC(=O)[C@H](CCCCN)NC(=O)CNC(=O)[C@H](CC(C)C)NC(=O)CNC(=O)[C@@H]1C2CCCCC2CN1C(=O)[C@@H]1Cc2ccccc2CN1C(=O)[C@H](CCCCN)NC(=O)CNC(C)=O)C(=O)NCC(=O)N[C@@H](CCC(=O)O)C(=O)N[C@@H](CCCNC(=N)N)C(N)=O (stereo partly drawn) (Ac-GK[Tic][Pro(3ξ,4ξ-(CH2)4)]GLGKE[Tic][Pro(3ξ,4ξ-(CH2)4)]GLGK[Tic]PELMGER-NH2) | inactive | inactive | – | – |
| CSCC[C@H](NC(=O)[C@H](CC(C)C)NC(=O)[C@H](CCC(=O)O)NC(=O)[C@@H]1c2ccccc2CN1C(=O)[C@@H]1Cc2ccccc2CN1C(=O)[C@H](Cc1ccccc1)NC(=O)CCNC(=O)[C@@H]1c2ccccc2CN1C(=O)[C@@H]1Cc2ccccc2CN1C(=O)[C@H](CCCCN)NC(=O)CCNC(=O)[C@@H]1c2ccccc2CN1C(=O)[C@@H]1Cc2ccccc2CN1C(=O)[C@H](Cc1ccccc1)NC(=O)CCNC(=O)[C@@H]1c2ccccc2CN1C(=O)[C@@H]1Cc2ccccc2CN1C(=O)[C@H](CCCCN)NC(=O)CCNC(=O)[C@@H]1c2ccccc2CN1C(=O)[C@@H]1Cc2ccccc2CN1C(=O)[C@H](CC(C)C)NC(=O)CNC(=O)[C@H](CCCCN)NC(=O)CN)C(=O)N[C@@H](CC(N)=O)C(=O)N[C@@H](CO)C(N)=O (H-GKGL[Tic][Pro(3,4-benzo)][βAla]K[Tic][Pro(3,4-benzo)][βAla]F[Tic][Pro(3,4-benzo)][βAla]K[Tic][Pro(3,4-benzo)][βAla]F[Tic][Pro(3,4-benzo)]ELMNS-NH2) | inactive | inactive | – | – |
| CC(C)C[C@H](NC(=O)CNC(=O)[C@H](CCCCN)NC(=O)CN)C(=O)N1Cc2ccccc2C[C@H]1C(=O)N1CC2CCCCC2[C@H]1C(=O)NCC(=O)N[C@@H](CCCCN)C(=O)N1Cc2ccccc2C[C@H]1C(=O)N1CC2CCCCC2[C@H]1C(=O)NCC(=O)N[C@@H](Cc1ccccc1)C(=O)N1Cc2ccccc2C[C@H]1C(=O)N1CC2CCCCC2[C@H]1C(=O)NCC(=O)N[C@@H](CCCCN)C(=O)N1Cc2ccccc2C[C@H]1C(=O)N1CC2CCCCC2[C@H]1C(=O)NCC(=O)N[C@@H](Cc1ccccc1)C(=O)N1Cc2ccccc2C[C@H]1C(=O)N1CC2CCCCC2[C@H]1C(=O)NCC(=O)N[C@@H](CCCCN)C(=O)N1Cc2ccccc2C[C@H]1C(=O)N1CC2CCCCC2[C@H]1C(=O)NCC(=O)N[C@@H](CCCCN)C(=O)N[C@@H](CCCNC(=N)N)C(N)=O (stereo partly drawn) (H-GKGL[Tic][Pro(3ξ,4ξ-(CH2)4)]GK[Tic][Pro(3ξ,4ξ-(CH2)4)]GF[Tic][Pro(3ξ,4ξ-(CH2)4)]GK[Tic][Pro(3ξ,4ξ-(CH2)4)]GF[Tic][Pro(3ξ,4ξ-(CH2)4)]GK[Tic][Pro(3ξ,4ξ-(CH2)4)]GKR-NH2) | – | – | 10 (≈ 35.4 µg/mL) | – |
| CC(C)C[C@H](NC(=O)CNC(=O)[C@H](CCCCN)NC(=O)CN)C(=O)N1Cc2ccccc2C[C@H]1C(=O)N1CC2CCCCC2[C@H]1C(=O)NCC(=O)N[C@@H](CCCCN)C(=O)N1Cc2ccccc2C[C@H]1C(=O)N1CC2CCCCC2[C@H]1C(=O)NCC(=O)N[C@@H](CC(C)C)C(=O)N1Cc2ccccc2C[C@H]1C(=O)N1CC2CCCCC2[C@H]1C(=O)NCC(=O)N[C@@H](CCCCN)C(=O)N1Cc2ccccc2C[C@H]1C(=O)N1CC2CCCCC2[C@H]1C(=O)NCC(=O)N[C@@H](CC(C)C)C(=O)N1Cc2ccccc2C[C@H]1C(=O)N1CC2CCCCC2[C@H]1C(=O)NCC(=O)N[C@@H](CCCCN)C(=O)N1Cc2ccccc2C[C@H]1C(=O)N1CC2CCCCC2[C@H]1C(=O)NCC(=O)N[C@@H](CCCCN)C(=O)N[C@@H](CCCNC(=N)N)C(N)=O (stereo partly drawn) (H-GKGL[Tic][Pro(3ξ,4ξ-(CH2)4)]GK[Tic][Pro(3ξ,4ξ-(CH2)4)]GL[Tic][Pro(3ξ,4ξ-(CH2)4)]GK[Tic][Pro(3ξ,4ξ-(CH2)4)]GL[Tic][Pro(3ξ,4ξ-(CH2)4)]GK[Tic][Pro(3ξ,4ξ-(CH2)4)]GKR-NH2) | – | – | 10 (≈ 34.7 µg/mL) | 100 (≈ 347 µg/mL) |
| CC(C)C[C@H](NC(=O)CNC(=O)[C@H](CCCCN)NC(=O)CN)C(=O)N1Cc2ccccc2C[C@H]1C(=O)N1CC2CCCCC2[C@H]1C(=O)NCC(=O)N[C@@H](CCCN)C(=O)N1Cc2ccccc2C[C@H]1C(=O)N1CC2CCCCC2[C@H]1C(=O)NCC(=O)N[C@@H](Cc1ccccc1)C(=O)N1Cc2ccccc2C[C@H]1C(=O)N1CC2CCCCC2[C@H]1C(=O)NCC(=O)N[C@@H](CCCCN)C(=O)N1Cc2ccccc2C[C@H]1C(=O)N1CC2CCCCC2[C@H]1C(=O)NCC(=O)N[C@@H](Cc1ccccc1)C(=O)N1Cc2ccccc2C[C@H]1C(=O)N1CC2CCCCC2[C@H]1C(=O)NCC(=O)N[C@@H](CCCCN)C(=O)N1Cc2ccccc2C[C@H]1C(=O)N1CC2CCCCC2[C@H]1C(=O)NCC(=O)N[C@@H](CCCCN)C(=O)N[C@@H](CCCNC(=N)N)C(N)=O (stereo partly drawn) (H-GKGL[Tic][Pro(3ξ,4ξ-(CH2)4)]G[Orn][Tic][Pro(3ξ,4ξ-(CH2)4)]GF[Tic][Pro(3ξ,4ξ-(CH2)4)]GK[Tic][Pro(3ξ,4ξ-(CH2)4)]GF[Tic][Pro(3ξ,4ξ-(CH2)4)]GK[Tic][Pro(3ξ,4ξ-(CH2)4)]GKR-NH2) | inactive | – | – | – |
| CSCC[C@H](NC(=O)[C@H](CC(C)C)NC(=O)[C@H](CCC(=O)O)NC(=O)[C@@H]1CCCN1C(=O)[C@H](Cc1ccccc1)NC(=O)[C@H](CCCCN)NC(=O)CNC(=O)[C@H](CC(C)C)NC(=O)CNC(=O)[C@@H]1CCCN1C(=O)[C@H](Cc1ccccc1)NC(=O)[C@H](CCCCN)NC(=O)CNC(=O)[C@H](CC(C)C)NC(=O)CNC(=O)[C@@H]1CCCN1C(=O)[C@H](Cc1ccccc1)NC(=O)[C@H](CCSC)NC(=O)[C@H](CCCCN)NC(=O)CN)C(=O)NCC(=O)N[C@@H](CCCNC(=N)N)C(N)=O (H-GKMFPGLGKFPGLGKFPELMGR-NH2) | inactive | inactive | – | – |
| CC[C@H](C)[C@H](NC(=O)CN)C(=O)NCC(=O)N[C@@H](CCCCN)C(=O)N[C@@H](Cc1ccccc1)C(=O)N[C@@H](CC(C)C)C(=O)N[C@@H](Cc1cnc[nH]1)C(=O)N[C@@H](CO)C(=O)N[C@@H](C)C(=O)NCC(=O)N[C@@H](CCCCN)C(=O)N[C@@H](Cc1ccccc1)C(=O)NCC(=O)N[C@@H](CCCCN)C(=O)N[C@@H](C)C(=O)N[C@@H](Cc1ccccc1)C(=O)N[C@H](C(=O)NCC(=O)N[C@@H](CCC(=O)O)C(=O)N[C@H](C(=O)N[C@@H](CCSC)C(=O)N[C@@H](CCCCN)C(=O)N[C@@H](CO)C(N)=O)[C@@H](C)CC)C(C)C [MAGAININ 1] | – | – | – | 30 (≈ 72.3 µg/mL) |
